Reference: US20030087906A1, “NITROGEN SUBSTITUTED BIARYL PURINE DERIVATIVES AS POTENT ANTIPROLIFERATIVE AGENTS” (priority 2001, published 2003)

Experiments:
[1] = test system: SK-MEL-2; test: NCI 60-cell line growth inhibition assay; format: cell-based; settings: Homo sapiens; Melanoma, SK-MEL-2
[2] = test system: SK-MEL-28; test: NCI 60-cell line growth inhibition assay; format: cell-based; settings: Homo sapiens; Melanoma, SK-MEL-28
[3] = test system: IGROV1; test: NCI 60-cell line growth inhibition assay; format: cell-based; settings: Homo sapiens, IGROV-1; Ovarian, IGROV1
[4] = test system: SR; test: NCI 60-cell line growth inhibition assay; format: cell-based; settings: Homo sapiens; Leukemia, SR
[5] = test system: SF-268; test: NCI 60-cell line growth inhibition assay; format: cell-based; settings: Homo sapiens; CNS, SF-268
[6] = test system: TK-10; test: NCI 60-cell line growth inhibition assay; format: cell-based; settings: Homo sapiens; Renal, TK-10
[7] = test system: MOLT-4; test: NCI 60-cell line growth inhibition assay; format: cell-based; settings: Homo sapiens; Leukemia, MOLT-4
[8] = test system: SW-620; test: NCI 60-cell line growth inhibition assay; format: cell-based; settings: Homo sapiens; Colon, SW-620
[9] = test system: OVCAR-5; test: NCI 60-cell line growth inhibition assay; format: cell-based; settings: Homo sapiens; Ovarian, OVCAR-5
[10] = test system: HCT-15; test: NCI 60-cell line growth inhibition assay; format: cell-based; settings: Homo sapiens; Colon, HCT-15
[11] = test system: CAKI-1; test: NCI 60-cell line growth inhibition assay; format: cell-based; settings: Homo sapiens; Renal, CAKI-1
[12] = test system: SK-OV-3; test: NCI 60-cell line growth inhibition assay; format: cell-based; settings: Homo sapiens; Ovarian, SK-OV-3
[13] = test system: U251; test: NCI 60-cell line growth inhibition assay; format: cell-based; settings: Homo sapiens, U-251; CNS, U251
[14] = MTD (NCI in vivo evaluation, Table 8); settings: mouse
[15] = test system: A549/ATCC; test: NCI 60-cell line growth inhibition assay; format: cell-based; settings: Homo sapiens; Non-Small Cell Lung, A549/ATCC
[16] = test system: MDA-MB-435; test: NCI 60-cell line growth inhibition assay; format: cell-based; settings: Homo sapiens; Breast, MDA-MB-435
[17] = test system: T-47D; test: NCI 60-cell line growth inhibition assay; format: cell-based; settings: Homo sapiens, T47D; Breast, T-47D
[18] = test system: KM12; test: NCI 60-cell line growth inhibition assay; format: cell-based; settings: Homo sapiens; Colon, KM12
[19] = test system: K-562; test: NCI 60-cell line growth inhibition assay; format: cell-based; settings: Homo sapiens, K562; Leukemia, K-562
[20] = test system: OVCAR-3; test: NCI 60-cell line growth inhibition assay; format: cell-based; settings: Homo sapiens; Ovarian, OVCAR-3
[21] = test system: Tumor Cells in Hollow Fibers; test: NCI Hollow Fiber Assay (in vivo evaluation)
[22] = test system: RXF 393; test: NCI 60-cell line growth inhibition assay; format: cell-based; settings: Homo sapiens; Renal, RXF 393
[23] = test system: NCI-H322M; test: NCI 60-cell line growth inhibition assay; format: cell-based; settings: Homo sapiens; Non-Small Cell Lung, NCI-H322M
[24] = test system: LOX IMVI; test: NCI 60-cell line growth inhibition assay; format: cell-based; settings: Homo sapiens; Melanoma, LOX IMVI
[25] = test system: HeLa S-3 cells; test: Inhibition of cell growth of HeLa cells (SRB); format: cell-based, human; settings: Homo sapiens, HeLa S3, 48 h, 2 days of treatment, replicate experiments
[26] = test system: OVCAR-8; test: NCI 60-cell line growth inhibition assay; format: cell-based; settings: Homo sapiens; Ovarian, OVCAR-8
[27] = test system: ACHN; test: NCI 60-cell line growth inhibition assay; format: cell-based; settings: Homo sapiens; Renal, ACHN
[28] = test system: EKVX; test: NCI 60-cell line growth inhibition assay; format: cell-based; settings: Homo sapiens; Non-Small Cell Lung, EKVX
[29] = test system: HCC-2998; test: NCI 60-cell line growth inhibition assay; format: cell-based; settings: Homo sapiens; Colon, HCC-2998
[30] = test system: M14; test: NCI 60-cell line growth inhibition assay; format: cell-based; settings: Homo sapiens; Melanoma, M14
[31] = test system: MCF7; test: NCI 60-cell line growth inhibition assay; format: cell-based; settings: Homo sapiens; Breast, MCF7
[32] = test system: COLO 205; test: NCI 60-cell line growth inhibition assay; format: cell-based; settings: Homo sapiens; Colon, COLO 205
[33] = test system: MDA-MB-231/ATCC; test: NCI 60-cell line growth inhibition assay; format: cell-based; settings: Homo sapiens; Breast, MDA-MB-231/ATCC
[34] = test system: CCRF-CEM; test: NCI 60-cell line growth inhibition assay; format: cell-based; settings: Homo sapiens; Leukemia, CCRF-CEM
[35] = test system: UACC-62; test: NCI 60-cell line growth inhibition assay; format: cell-based; settings: Homo sapiens; Melanoma, UACC-62
[36] = test system: HT29; test: NCI 60-cell line growth inhibition assay; format: cell-based; settings: Homo sapiens, HT-29; Colon, HT29
[37] = test system: MALME-3M; test: NCI 60-cell line growth inhibition assay; format: cell-based; settings: Homo sapiens; Melanoma, MALME-3M
[38] = test system: HL-60(TB); test: NCI 60-cell line growth inhibition assay; format: cell-based; settings: Homo sapiens; Leukemia, HL-60(TB)
[39] = test system: SF-295; test: NCI 60-cell line growth inhibition assay; format: cell-based; settings: Homo sapiens; CNS, SF-295
[40] = test system: PC-3; test: NCI 60-cell line growth inhibition assay; format: cell-based; settings: Homo sapiens; Prostate, PC-3
[41] = test system: UACC-257; test: NCI 60-cell line growth inhibition assay; format: cell-based; settings: Homo sapiens; Melanoma, UACC-257
[42] = test system: NCI-H460; test: NCI 60-cell line growth inhibition assay; format: cell-based; settings: Homo sapiens; Non-Small Cell Lung, NCI-H460
[43] = test system: SNB-19; test: NCI 60-cell line growth inhibition assay; format: cell-based; settings: Homo sapiens; CNS, SNB-19
[44] = test system: UO-31; test: NCI 60-cell line growth inhibition assay; format: cell-based; settings: Homo sapiens; Renal, UO-31

`CC[C@H](CO)Nc1nc(NCc2ccc(-c3cccc(C(F)(F)F)c3)cc2)c2ncn(C(C)C)c2n1` [Compound 38] gave a GI50 [1] of 2000 nM, a GI50 [2] of 30 nM and a GI50 [3] of 160 nM. The GI50 [4] was 3980 nM, the GI50 [5] was 200 nM and the GI50 [6] was 400 nM. It also gave a GI50 [7] of 250 nM, a GI50 [8] of 30 nM and a GI50 [9] of 400 nM. It also gave a GI50 [10] of 250 nM, a GI50 [11] of 200 nM and a GI50 [12] of 3980 nM. The GI50 [13] was 200 nM, the MTD [14] was 100 mg/kg and the GI50 [15] was 130 nM. The GI50 [16] was 50 nM, the GI50 [17] was 250 nM and the GI50 [18] was 160 nM. The GI50 [19] was 250 nM, the GI50 [20] was 1000 nM and the “IP Score” value ([21]; IP fibers) was 0. For the same compound, the SC score ([21]; SC fibers) was 4, the GI50 [22] was 130 nM and the GI50 [23] was 400 nM. It also gave a GI50 [24] of 400 nM, a GI50 [25] of 600 nM and a GI50 [26] of 250 nM. For the same compound, the GI50 [27] was 2000 nM, the GI50 [28] was 200 nM and the GI50 [29] was 7940 nM. For the same compound, the GI50 [30] was 50 nM, the GI50 [31] was 200 nM and the GI50 [32] was 160 nM. The GI50 [33] was 60 nM, the GI50 [34] was 200 nM and the GI50 [35] was 1000 nM. For the same compound, the GI50 [36] was 250 nM, the GI50 [37] was 250 nM and the GI50 [38] was 40 nM. The GI50 [39] was 500 nM, the GI50 [40] was 400 nM and the GI50 [41] was 500 nM. The GI50 [42] was 3160 nM, the GI50 [43] was 500 nM and the GI50 [44] was 130 nM.
